Reference: patent US8937066B2, “Amino derivatives of dihydro-1,3,5-triazine used in the treatment of ischemia and/or reperfusion related diseases” (Poxel, priority 2009, dated 2015)

Experiments:
[1] = test system: complex I of the respiratory chain of endothelial cells; test: ROS production by complex I of the respiratory chain; assay type: cell-based; conditions: by inhibiting reverse electron flow
[2] = test system: infarct size / area at risk; test: Model of myocardial infarction in the rabbit (30 min coronary occlusion, 4 h reperfusion); assay type: in vivo; conditions: for AN (area of necrosis) / AN/AR / AN/LV: group mean (extent of values)
Experimental: Male New Zealand albino rabbits weighing between 2.2 and 2.5 kg were anesthetized by intramuscular injection of xylazine (5 mg/kg) and ketamine (50 mg/kg). An intravenous infusion of a mixture of xylazine (20 to 50 μg/kg/min) and ketamine (40 to 100 μg/kg/min) was maintained throughout the test.
After a median cervical incision, a tracheotomy was performed and the animals were ventilated with ambient air. A cannula was inserted in the right internal jugular vein for administration of the medicinal products and fluids and in the left carotid artery for measurement of blood pressure. After an intravenous bolus administration of fentanyl ([…]), a left thoracotomy was performed at the level of the fourth left intercostal space. The pericardium was opened and the heart was exposed. A 3.0 suture thread attached to a small curved needle was passed around a marginal branch of the left circumflex coronary artery. The two ends of the thread were passed through a small vinyl tube to form a collar that could be tightened for occluding and released for reperfusing the artery. Body temperature was monitored via an intraperitoneal thermometer and kept constant by means of a heating block. The heart rate and arterial pressure were monitored continuously on a Gould recorder (Gould Inc., Cleveland, Ohio).
After surgery, a period of stabilization of 15 minutes was observed.
The rabbits are randomly distributed into 4 groups. All the animals undergo a prolonged occlusion of 30 minutes of the coronary artery, followed by 4 hours of reperfusion. Five minutes before reperfusion, the rabbits receive an intravenous injection of either: • a vehicle (volume corresponding to dose 1 or 2 of E 008) (Control, C), • E 008 at dose 1, • E 008 at dose 2, • of ciclosporin A (CsA) at 10 mg/kg.
The sample size is 8 to 10 animals per group. In these groups, the hearts were collected at the end of the period of 4 hours of reperfusion for subsequent evaluation of infarct size.
After 4 hours of reperfusion, the coronary artery was briefly reoccluded and 0.5 mg/kg of Uniperse blue pigment (Ciba-Geigy®, Hawthorne N.Y.) was injected intravenously for delimiting the area at risk in viva With this technique, the previously nonischemic myocardium appears blue, whereas the previously ischemic myocardium (area at risk) remains unstained.
The anesthetized rabbits were then euthanized by intravenous injection of pentobarbital. The heart was excised and cut into transverse slices with thickness of 5 to 6 mm, parallel to the atrioventricular sulcus. After removing the tissue of the right ventricle, each slice was weighed. The basal surface of each slice was photographed for later measurement of the area at risk. Each slice was then incubated for 15 minutes in a 1% solution of triphenyltetrazolium chloride at 37° C. for differentiating the myocardial zones that were infarcted (pale) and viable (brick red). The slices were then photographed again. Magnified projections of these slices were traced for determining the boundaries of the area at risk (AR) and of the area of necrosis (AN). The extent of these areas at risk and of necrosis was quantified by planimetry by computer and corrected relative to the weight of the tissue slices. The total weights of the area at risk and of the area of necrosis were then calculated and expressed in grams and as a percentage of total left ventricle (LV) and of the weight of the area at risk, respectively. […] Evaluation of infarct size was performed blind.
The results are presented in the following table in the form of value averaged for all the animals of a group, the figure in parentheses representing the extent of the values measured for the different animals.

[3] = test system: human immortalized microvascular dermal endothelial cells HMEC-1; test: Mitochondrial membrane potential (TMRM, confocal microscopy) after ischemia/reperfusion; assay type: cell-based; conditions: 10 mM for 30 min; for mitochondrial membrane potential after reperfusion: then 60 min ischemia and 90/120 min reperfusion
Experimental: The objective of this study is to evaluate the protective effect of the compound E 008 on vascular injury due to ischemia/reperfusion, by measuring the effect of E 008 on loss of mitochondrial membrane potential induced by ischemia/reperfusion.
The line of human immortalized microvascular dermal endothelial cells HMEC-1 was used.
The cells were treated according to the following scheme: • control group: no treatment, followed by ischemia of 60 min and reperfusion of 120 min. • metformin group: incubation with metformin at a concentration of 10 mM for 30 min, followed by ischemia of 60 min and reperfusion of 120 min. • E 008 group: incubation with the compound E 008 at a concentration of 10 mM for 30 min followed by ischemia of 60 min and reperfusion of 120 min. Measurement of Mitochondrial Membrane Potential
In order to measure the mitochondrial potential, the cells were incubated, throughout the above treatment, with the fluorescent probe tetramethylrhodamine methyl ester (TMRM) at a concentration of 30 nM.
They were analyzed in confocal microscopy before treatment, after 60 min of ischemia, after 90 min of reperfusion and after 120 min of reperfusion (FIG. 1).

[4] = E 008 1 mg/kg i.v. 5 min before reperfusion
[5] = E 008 5 mg/kg i.v. 5 min before reperfusion

SMILES	production of ROS by complex I of the respiratory chain [1]	AN (area of necrosis) [2, 4]	AN/AR [2, 4]	AN/LV [2, 4]	protection in the model of myocardial infarction ([2]; E 008 5 mg/kg i.v.)	AN (area of necrosis) [2, 5]	AN/AR [2, 5]	AN/LV [2, 5]	infarct size relative to ciclosporin A ([2]; E 008 5 mg/kg i.v. vs CsA 10 mg/kg)	infarct size relative to the control ([2]; i.v. 5 min before reperfusion, dose not given)	mitochondrial membrane potential after reperfusion [3]	protective effect against loss of membrane potential compared with metformin ([3]; then 60 min ischemia and 120 min reperfusion)
CC1N=C(N)NC(N(C)C)=N1 (stereo not shown) [E 008]	reduce the production of ROS	0.31 (±0.15) g	33.9 (±12.2) %	11.8 (±5) %	significant protection	0.21 (±0.09) g	29.4 (±10.3) %	8.3 (±3.7) %	reduction in infarct size relative to ciclosporin A	significant reduction in infarct size	protected from the damage due to reperfusion	better protective effect
CN(C)C(=N)N=C(N)N [metformin, reference compound]	–	–	–	–	–	–	–	–	–	–	protected from the damage due to reperfusion	–
